# Reference: US11344554B2, “Animal and human anti-malarial agents” (Celgene Corporation, priority 2016, dated 2022)
# System: Plasmodium falciparum
# Assay: Plasmodium falciparum in vitro [3H]-hypoxanthine parasite growth inhibition assay
# Assay type: cell-based
# Settings: Erythrocyte, P. falciparum asexual blood stage parasites in human erythrocytes, [3H]-hypoxanthine uptake, read-out: Act Class (IC50 activity level)
row,Compound,IC50
1,"CC(C)(C)Nc1ncc2nc(Nc3cccc(C(F)(F)F)c3)n(CCCN)c2n1 [Cpd 11, 9-(3-aminopropyl)-N2-tert-butyl-N8-(3-(trifluoromethyl)phenyl)-9H-purine-2,8-diamine]",0.2 to 0.5 µM
2,"CC(C)(C)Nc1ncc2nc(Nc3cccc(C(F)(F)F)c3)n(CC3CCNC3)c2n1 (centres unmarked) [Cpd 24, N2-tert-butyl-9-(pyrrolidin-3-ylmethyl)-N8-(3-(trifluoromethyl)phenyl)-9H-purine-2,8-diamine]",0.2 to 0.5 µM
3,"CC(C)(C)Nc1ncc2nc(Nc3cc(Cl)cc(Cl)c3)n(C3CCN(CCN)CC3)c2n1 [Cpd 35, 9-(1-(2-aminoethyl)piperidin-4-yl)-N2-tert-butyl-N8-(3,5-dichlorophenyl)-9H-purine-2,8-diamine]",0.2 to 0.5 µM
4,"CC1(Nc2ncc3nc(Nc4cccc(C(F)(F)F)c4)n(C4CCNCC4)c3n2)CCOCC1 [Cpd 25, N2-(4-methyltetrahydro-2H-pyran-4-yl)-9-(piperidin-4-yl)-N8-(3-(trifluoromethyl)phenyl)-9H-purine-2,8-diamine]",0.5 to 1.2 µM
5,"CC(C)Nc1ncc2nc(Nc3ccc(C(F)(F)F)c(Cl)c3)n(C3CCNCC3)c2n1 [Cpd 91, N8-(3-chloro-4-(trifluoromethyl)phenyl)-N2-isopropyl-9-(piperidin-4-yl)-9H-purine-2,8-diamine]",0.2 to 0.5 µM
6,"CC1(Nc2ncc3nc(Nc4cccc(C(F)F)c4)n(C4CCNCC4)c3n2)CCOCC1 [Cpd 57, N8-(3-(difluoromethyl)phenyl)-N2-(4-methyltetrahydro-2H-pyran-4-yl)-9-(piperidin-4-yl)-9H-purine-2,8-diamine]",0.5 to 1.2 µM
7,"CC1(Nc2ncc3nc(Nc4ccc(Cl)c(C(F)(F)F)c4)n(C4CCNCC4)c3n2)CC1 [Cpd 89, N8-(4-chloro-3-(trifluoromethyl)phenyl)-N2-(1-methylcyclopropyl)-9-(piperidin-4-yl)-9H-purine-2,8-diamine]",0.2 to 0.5 µM
8,"CC(C)(C)Nc1ncc2nc(Nc3cccc(C#N)c3)n(C3CCNCC3)c2n1 [Cpd 50, 3-(2-(tert-butylamino)-9-(piperidin-4-yl)-9H-purin-8-ylamino)benzonitrile]",0.2 to 0.5 µM
9,"CC(C)(C)Nc1ncc2nc(Nc3cccc(C(F)(F)F)c3)n(C3CCC4CNCC4C3)c2n1 (centres unmarked) [Cpd 78, N2-tert-butyl-9-(octahydro-1H-isoindol-5-yl)-N8-(3-(trifluoromethyl)phenyl)-9H-purine-2,8-diamine]",0.5 to 1.2 µM
10,"CC(C)(C)Nc1ncc2nc(Nc3cc(Cl)cc(C(F)(F)F)c3)n(C3CCN(CCN)C3)c2n1 (centres unmarked) [Cpd 60, 9-(1-(2-aminoethyl)pyrrolidin-3-yl)-N2-tert-butyl-N8-(3-chloro-5-(trifluoromethyl)phenyl)-9H-purine-2,8-diamine]",0.2 to 0.5 µM
11,"CC(C)(C)Nc1ncc2nc(Nc3ccnc(C(F)(F)F)c3)n(C3CCNCC3)c2n1 [Cpd 31, N2-tert-butyl-9-(piperidin-4-yl)-N8-(2-(trifluoromethyl)pyridin-4-yl)-9H-purine-2,8-diamine]",0.2 to 0.5 µM
12,"CC(C)(C)Nc1ncc2nc(Nc3cccc(C(F)(F)F)c3)n(C3CC4CNCC4C3)c2n1 (centres unmarked) [Cpd 95, N2-tert-butyl-9-(octahydrocyclopenta[c]pyrrol-5-yl)-N8-(3-(trifluoromethyl)phenyl)-9H-purine-2,8-diamine]",0.2 to 0.5 µM
13,"CC1(Nc2ncc3nc(Nc4cccc(Cl)c4)n(CCN4CCCCC4)c3n2)CCOCC1 [Cpd 16, N8-(3-chlorophenyl)-N2-(4-methyltetrahydro-2H-pyran-4-yl)-9-(2-(piperidin-1-yl)ethyl)-9H-purine-2,8-diamine]",0.5 to 1.2 µM
14,"CC(C)(C)Nc1ncc2nc(Nc3ccc(C(F)(F)F)cc3)n(C3CCNCC3)c2n1 [Cpd 2, N2-tert-butyl-9-(piperidin-4-yl)-N8-(4-(trifluoromethyl)phenyl)-9H-purine-2,8-diamine]",0.2 to 0.5 µM
15,"CC(C)(C)Nc1ncc2nc(Nc3ccc(C#N)cc3)n(C3CCNCC3)c2n1 [Cpd 14, 4-(2-(tert-butylamino)-9-(piperidin-4-yl)-9H-purin-8-ylamino)benzonitrile]",0.5 to 1.2 µM
16,"CC1(Nc2ncc3nc(Nc4ccc(C(F)(F)F)c(Cl)c4)n(C4CCNCC4)c3n2)CC1 [Cpd 93, N8-(3-chloro-4-(trifluoromethyl)phenyl)-N2-(1-methylcyclopropyl)-9-(piperidin-4-yl)-9H-purine-2,8-diamine]",0.2 to 0.5 µM
17,"CC1(Nc2ncc3nc(Nc4cccc(Cl)c4)n(CCN4CCCC4)c3n2)CCOCC1 [Cpd 17, N8-(3-chlorophenyl)-N2-(4-methyltetrahydro-2H-pyran-4-yl)-9-(2-(pyrrolidin-1-yl)ethyl)-9H-purine-2,8-diamine]",0.5 to 1.2 µM
18,"CC1(Nc2ncc3nc(Nc4ccc(C(F)(F)F)c(Cl)c4)n(C4CCNCC4)c3n2)CCCC1 [Cpd 94, N8-(3-chloro-4-(trifluoromethyl)phenyl)-N2-(1-methylcyclopentyl)-9-(piperidin-4-yl)-9H-purine-2,8-diamine]",0.1 to 0.2 µM
19,"FC(F)(F)c1cc(Nc2nc3cnc(NC4CCC4)nc3n2C2CCNCC2)cc(C(F)(F)F)c1 [Cpd 86, N8-(3,5-bis(trifluoromethyl)phenyl)-N2-cyclobutyl-9-(piperidin-4-yl)-9H-purine-2,8-diamine]",0.1 to 0.2 µM

# Next, values leading:
row,IC50,Compound
1,< 0.1 µM,"CC1(Nc2ncc3nc(Nc4cc(Cl)cc(C(F)(F)F)c4)n(C4CCNCC4)c3n2)CC1 [Cpd 42, N8-(3-chloro-5-(trifluoromethyl)phenyl)-N2-(1-methylcyclopropyl)-9-(piperidin-4-yl)-9H-purine-2,8-diamine]"
2,< 0.1 µM,"CC(C)(C)Nc1ncc2nc(Nc3cc(Cl)cc(OC(F)(F)F)c3)n(C3CCNCC3)c2n1 [Cpd 48, N2-tert-butyl-N8-(3-chloro-5-(trifluoromethoxy)phenyl)-9-(piperidin-4-yl)-9H-purine-2,8-diamine]"
3,0.1 to 0.2 µM,"FC(F)(F)c1cc(Nc2nc3cnc(NC4CC4)nc3n2C2CCNCC2)cc(C(F)(F)F)c1 [Cpd 96, N8-(3,5-bis(trifluoromethyl)phenyl)-N2-cyclopropyl-9-(piperidin-4-yl)-9H-purine-2,8-diamine]"
4,0.1 to 0.2 µM,"CC(C)(C)Nc1ncc2nc(Nc3ccc(OC(F)(F)F)cc3)n(C3CCNCC3)c2n1 [Cpd 21, N2-tert-butyl-9-(piperidin-4-yl)-N8-(4-(trifluoromethoxy)phenyl)-9H-purine-2,8-diamine]"
5,< 0.1 µM,"CC(C)Nc1ncc2nc(Nc3cc(Cl)cc(C(F)(F)F)c3)n(C3CCNCC3)c2n1 [Cpd 44, N8-(3-chloro-5-(trifluoromethyl)phenyl)-N2-isopropyl-9-(piperidin-4-yl)-9H-purine-2,8-diamine]"
6,0.1 to 0.2 µM,"CC1(Nc2ncc3nc(Nc4ccc(C(F)(F)F)cc4)n(C4CCNCC4)c3n2)CCOCC1 [Cpd 15, N2-(4-methyltetrahydro-2H-pyran-4-yl)-9-(piperidin-4-yl)-N8-(4-(trifluoromethyl)phenyl)-9H-purine-2,8-diamine]"
7,< 0.1 µM,"CN1CCC(n2c(Nc3ccc(Cl)c(Cl)c3)nc3cnc(NC(C)(C)C)nc32)CC1 [Cpd 36, N2-tert-butyl-N8-(3,4-dichlorophenyl)-9-(1-methylpiperidin-4-yl)-9H-purine-2,8-diamine]"
8,< 0.1 µM,"FC(F)(F)c1cc(Cl)cc(Nc2nc3cnc(NC4CCC4)nc3n2C2CCNCC2)c1 [Cpd 52, N8-(3-chloro-5-(trifluoromethyl)phenyl)-N2-cyclobutyl-9-(piperidin-4-yl)-9H-purine-2,8-diamine]"
9,0.1 to 0.2 µM,"CC(N)CCn1c(Nc2cc(Cl)cc(C(F)(F)F)c2)nc2cnc(NC3CCCC3)nc21 (centres unmarked) [Cpd 111, 9-(3-aminobutyl)-N8-(3-chloro-5-(trifluoromethyl)phenyl)-N2-cyclopentyl-9H-purine-2,8-diamine]"
10,0.1 to 0.2 µM,"Fc1cc(Cl)cc(Nc2nc3cnc(NC4CC4)nc3n2C2CCNCC2)c1 [Cpd 62, N8-(3-chloro-5-fluorophenyl)-N2-cyclopropyl-9-(piperidin-4-yl)-9H-purine-2,8-diamine]"
11,< 0.1 µM,"FC(F)(F)c1cc(Nc2nc3cnc(NC4CCCC4)nc3n2C2CCNCC2)cc(C(F)(F)F)c1 [Cpd 85, N8-(3,5-bis(trifluoromethyl)phenyl)-N2-cyclopentyl-9-(piperidin-4-yl)-9H-purine-2,8-diamine]"
12,< 0.1 µM,"FC(F)(F)c1cc(Cl)cc(Nc2nc3cnc(NC4CC4)nc3n2C2CCNCC2)c1 [Cpd 40, N8-(3-chloro-5-(trifluoromethyl)phenyl)-N2-cyclopropyl-9-(piperidin-4-yl)-9H-purine-2,8-diamine]"
13,< 0.1 µM,"CC(C)(C)Nc1ncc2nc(Nc3cccc(C(F)(F)F)c3)n(C3CCNCC3)c2n1 [Cpd 3, N2-tert-butyl-9-(piperidin-4-yl)-N8-(3-(trifluoromethyl)phenyl)-9H-purine-2,8-diamine]"
14,< 0.1 µM,"CC(C)(C)Nc1ncc2nc(Nc3cc(C(F)(F)F)cc(C(F)(F)F)c3)n(C3CCNCC3)c2n1 [Cpd 49, N8-(3,5-bis(trifluoromethyl)phenyl)-N2-tert-butyl-9-(piperidin-4-yl)-9H-purine-2,8-diamine]"
15,< 0.1 µM,"CC(C)(C)Nc1ncc2nc(Nc3cccc(OC(F)(F)F)c3)n(C3CCNCC3)c2n1 [Cpd 29, N2-tert-butyl-9-(piperidin-4-yl)-N8-(3-(trifluoromethoxy)phenyl)-9H-purine-2,8-diamine]"
16,< 0.1 µM,"CC(C)(C)Nc1ncc2nc(Nc3cc(Cl)cc(C(F)(F)F)c3)n(C3CCNCC3)c2n1 [Cpd 27, N2-tert-butyl-N8-(3-chloro-5-(trifluoromethyl)phenyl)-9-(piperidin-4-yl)-9H-purine-2,8-diamine]"
17,< 0.1 µM,"CC1(Nc2ncc3nc(Nc4cc(Cl)cc(C(F)(F)F)c4)n(C4CCNCC4)c3n2)CCCC1 [Cpd 68, N8-(3-chloro-5-(trifluoromethyl)phenyl)-N2-(1-methylcyclopentyl)-9-(piperidin-4-yl)-9H-purine-2,8-diamine]"
18,< 0.1 µM,"CC(C)Nc1ncc2nc(Nc3ccc(Cl)c(Cl)c3)n(C3CCNCC3)c2n1 [Cpd 65, N8-(3,4-dichlorophenyl)-N2-isopropyl-9-(piperidin-4-yl)-9H-purine-2,8-diamine]"
19,< 0.1 µM,"CCN1CCC(n2c(Nc3ccc(Cl)c(Cl)c3)nc3cnc(NC(C)(C)C)nc32)CC1 [Cpd 37, N2-tert-butyl-N8-(3,4-dichlorophenyl)-9-(1-ethylpiperidin-4-yl)-9H-purine-2,8-diamine]"
